Where two headings read alike, the source gives them in different places. *1 amine or outer side, *2 acyl side, *3 side chain or, on linkers, in order; H or OH if unused. Where a SMILES comes first, the peptide text is derived from it. Bridges are numbered along the chain shown (N, C = ends). [ ]: non-standard residue; d: D form. The star is where a group is joined. X2 = O=C(O)CN1CCN(CC(=O)O)CCN(CC(=O)N[C@@H](CCC(=O)NC[C@H](O)[C@@H](O)[C@H](O)[C@H](O)CO)C(=O)*)CCN(CC(=O)O)CC1; X13 = O=C(CN1CCN2CCN3CCN(CC1)CC(=O)[O][Lu]([O]C(=O)C2)[O]C(=O)C3)NCCCOCCOCCOCCCN*; NH(1-deoxy-D-glucityl) = OC[C@@H](O)[C@@H](O)[C@H](O)[C@@H](O)CN*; DOTA = O=C(O)CN1CCN(CC(=O)O)CCN(CC(=O)*)CCN(CC(=O)O)CC1; Trp(5-Cl) = N[C@@H](Cc1c[nH]c2ccc(Cl)cc12)C(=O)O; Phe(3,5-Cl2) = N[C@@H](Cc1cc(Cl)cc(Cl)c1)C(=O)O; Pyridine(2,6-diCH2) = c1cc(C[*:1])nc(C[*:2])c1; 1Nal = N[C@@H](Cc1cccc2ccccc12)C(=O)O; mXylylene = c1cc(C[*:1])cc(C[*:2])c1; Glutaryl = O=C(CCCC(=O)[*:2])[*:1]; X7 = c1cc(CSCCN[*:2])cc(C[*:1])c1; Hyp = O=C(O)[C@@H]1C[C@@H](O)CN1; X1 = O=C(CN1CCC(N[*:1])CC1)[*:2]; Suc = O=C(CCC(=O)[*:2])[*:1]; hLeu = CC(C)CC[C@H](N)C(=O)O; hSer = N[C@@H](CCO)C(=O)O; Api = NC1(C(=O)O)CCNCC1; Thp = NC1(C(=O)O)CCOCC1; Aib = CC(C)(N)C(=O)O; Sar = CNCC(=O)O
Target: T1, GIPR (CHO-K1-hGIPR cells) (Homo sapiens, UniProt P48546)
T1 construct: host or cells: CHO-K1
T1 sequence (P48546 22-466): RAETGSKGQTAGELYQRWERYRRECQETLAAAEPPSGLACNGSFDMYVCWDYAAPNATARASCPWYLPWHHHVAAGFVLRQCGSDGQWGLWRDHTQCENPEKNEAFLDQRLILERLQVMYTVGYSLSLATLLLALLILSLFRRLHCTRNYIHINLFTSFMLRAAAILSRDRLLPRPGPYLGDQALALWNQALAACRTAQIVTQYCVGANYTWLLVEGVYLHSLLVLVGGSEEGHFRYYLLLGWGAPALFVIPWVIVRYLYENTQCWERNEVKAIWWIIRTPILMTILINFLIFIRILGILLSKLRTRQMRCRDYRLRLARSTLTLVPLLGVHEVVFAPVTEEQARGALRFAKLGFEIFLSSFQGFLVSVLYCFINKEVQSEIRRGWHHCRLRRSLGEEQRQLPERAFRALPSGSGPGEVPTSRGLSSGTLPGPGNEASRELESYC
Test: FACS binding assay
Procedure, shortened: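 CHO-K1 cells stably expressing human GIPR were detached with Accutase, suspended at 500.000 cells per mL in PBS with 1% FCS, and washed ice-cold. Bound peptide was detected with 1 μg/mL APC-streptavidin for 30 min on ice.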

[1] = competition with 20 nM GIP-057, 4° C., 1 hour, read-out: pIC50 Category (converted)
[2] = competition with 20 nM GIP-057, 4° C. for 1 hour, read-out: pIC50 Category (converted)

IC50 [1] [nM] | IC50 [2] [nM] | SMILES | also measured
– | – | CC[C@H](C)[C@@H]1NC(=O)[C@H](CC(C)C)NC(=O)C(C)(C)NC(=O)[C@@H](NC(=O)[C@@H](CC(C)C)NC(=O)[C@H](CCC(=O)O)NC(=O)CN(C)C(=O)[C@H](Cc2c[nH]c3ccc(Cl)cc23)NC(=O)[C@H](Cc2c[nH]c3ccccc23)NC(=O)[C@H](CC(=O)O)NC(=O)CCC(=O)NCCCOCCOCCOCCCNC(=O)CN2CCN3CCN4CCN(CC2)CC(=O)[O][Lu]([O]C(=O)C3)[O]C(=O)C4)CSCc2cccc(c2)CSCCNC1=O [GIP-160, LuDOTA-Ttds-Asp-Trp-5Clw-Nmg-Glu-leu-[Cys(3MeBn)-Aib-Leu-Ile-AET]] ({X13-Suc}-DW[Trp(5-Cl)][Sar]E[dL]C[Aib]LI; linker 7-C via X7) | IC50 (pIC50 Category, competition with 20 nM GIP-057, 4° C., 1 hour): < 10 nM
10 to 79.4 | – | CC[C@H](C)[C@@H]1NC(=O)[C@H](CC(C)C)NC(=O)C2(CCN(C(=O)[C@H](CCC(=O)NC[C@H](O)[C@@H](O)[C@H](O)[C@H](O)CO)NC(=O)CN3CCN(CC(=O)O)CCN(CC(=O)O)CCN(CC(=O)O)CC3)CC2)NC(=O)[C@@H](NC(=O)[C@@H](CC(C)C)NC(=O)[C@H](CCC(=O)O)NC(=O)[C@@H]2C[C@@H](O)CN2C(=O)[C@H](Cc2c[nH]c3ccc(Cl)cc23)NC(=O)[C@H](Cc2c[nH]c3ccccc23)NC(=O)[C@H](CCO)NC(=O)CN2CCC(NC(=O)CCCC(=O)NC[C@H](O)[C@@H](O)[C@H](O)[C@H](O)CO)CC2)CSCc2cccc(n2)CSC[C@@H](C(=O)NC2CCN(CC(=O)N[C@H](CCC(=O)NC[C@H](O)[C@@H](O)[C@H](O)[C@H](O)CO)C(N)=O)CC2)NC1=O [GIP-047, AGLU-Glutar-APAc-Hse-Trp-5Clw-Hyp-Glu-leu-[Cys(2Lut)-Apc(DOTA-glu(AGLU))-Leu-Ile-Cys]-APAc-glu(AGLU)-NH2] ({NH(1-deoxy-D-glucityl)-Glutaryl}-[X1][hSer]W[Trp(5-Cl)][Hyp]E[dL]C[Api](X2)LIC[X1][dE](NH(1-deoxy-D-glucityl))-NH2; linker 8-12 via Pyridine(2,6-diCH2)) | –
– | 10 to 79.4 | CC(=O)N[C@@H](CC(=O)O)C(=O)N[C@@H](Cc1c[nH]c2ccccc12)C(=O)N[C@@H](Cc1c[nH]c2ccc(Cl)cc12)C(=O)N1C[C@H](O)C[C@H]1C(=O)N[C@@H](CCC(=O)O)C(=O)N[C@H](CC(C)C)C(=O)N[C@H]1CSCc2cccc(n2)CSC[C@@H](C(N)=O)NC(=O)[C@H](Cc2ccccc2)NC(=O)[C@H](CC(C)C)NC(=O)C2(CCN(C(=O)CN3CCN(CC(=O)O)CCN(CC(=O)O)CCN(CC(=O)O)CC3)CC2)NC1=O [GIP-393, Ac-Asp-Trp-5Clw-Hyp-Glu-leu-[Cys(2Lut)-Apc(DOTA)-Leu-Phe-Cys]-NH2] (Ac-DW[Trp(5-Cl)][Hyp]E[dL]C[Api](DOTA)LFC-NH2; linker 7-11 via Pyridine(2,6-diCH2)) | –
– | 100 to 794 | CC[C@H](C)[C@@H]1NC(=O)[C@H](CC(C)C)NC(=O)C(C)(C)NC(=O)[C@@H](NC(=O)[C@H](CCC(C)C)NC(=O)[C@H](CCC(=O)O)NC(=O)[C@@H]2CCCN2C(=O)[C@H](Cc2cccc3ccccc23)NC(=O)[C@H](Cc2c[nH]c3ccccc23)NC(=O)[C@H](CC(=O)O)NC(C)=O)CSCc2cccc(c2)CSC[C@@H](C(N)=O)NC1=O [GIP-315, Ac-Asp-Trp-1Ni-Pro-Glu-Hle-[Cys(3MeBn)-Aib-Leu-Ile-Cys]-NH2] (Ac-DW[1Nal]PE[hLeu]C[Aib]LIC-NH2; linker 7-11 via mXylylene) | –
– | 10 to 79.4 | CC[C@H](C)[C@@H]1NC(=O)[C@H](CC(C)C)NC(=O)C2(CCOCC2)NC(=O)[C@@H](NC(=O)[C@@H](CC(C)C)NC(=O)[C@H](CCC(=O)O)NC(=O)[C@@H]2C[C@@H](O)CN2C(=O)[C@H](Cc2c[nH]c3ccc(Cl)cc23)NC(=O)[C@H](Cc2cc(Cl)cc(Cl)c2)NC(=O)[C@H](CC(=O)O)NC(C)=O)CSCc2cccc(n2)CSC[C@@H](C(N)=O)NC1=O [GIP-263, Ac-Asp-Egn-5Clw-Hyp-Glu-leu-[Cys(2Lut)-Thp-Leu-Ile-Cys]-NH2] (Ac-D[Phe(3,5-Cl2)][Trp(5-Cl)][Hyp]E[dL]C[Thp]LIC-NH2; linker 7-11 via Pyridine(2,6-diCH2)) | –
< 10 | – | CC[C@H](C)[C@@H]1NC(=O)[C@H](CC(C)C)NC(=O)C(C)(C)NC(=O)[C@@H](NC(=O)[C@@H](CC(C)C)NC(=O)[C@H](CCC(=O)O)NC(=O)[C@@H]2CCCN2C(=O)[C@H](Cc2c[nH]c3ccc(Cl)cc23)NC(=O)[C@H](Cc2c[nH]c3ccccc23)NC(=O)[C@H](CC(=O)O)NC(=O)CCC(=O)NCCCOCCOCCOCCCNC(=O)CN2CCN(CC(=O)O)CCN(CC(=O)O)CCN(CC(=O)O)CC2)CNCc2cccc(c2)CSCCNC1=O [GIP-092, DOTA-Ttds-Asp-Trp-5Clw-Pro-Glu-leu-[Dap(3MeBn)-Aib-Leu-Ile-AET]] | –

Source: patent US20250296971A1, “GASTRIC INHIBITORY PEPTIDE RECEPTOR LIGANDS” (priority 2021, published 2025)
